Laboratory results taken from publication PMC12640663 (Chemmedchem, 2025).
“Also recorded” adds a separate entry of the source.

What was measured:
hPTP1B1–400 [1] = target: T1, hPTP1B1–400 (Homo sapiens, UniProt P18031); test: Kinetic studies of PTP1B (hPTP1B1–400);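 further: enzyme kinetics run across a range of substrate and inhibitor levels, control lacking inhibitor, triplicate runs, parameters derived by fitting Michaelis–Menten style equations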
T1 sequence (P18031 1-400): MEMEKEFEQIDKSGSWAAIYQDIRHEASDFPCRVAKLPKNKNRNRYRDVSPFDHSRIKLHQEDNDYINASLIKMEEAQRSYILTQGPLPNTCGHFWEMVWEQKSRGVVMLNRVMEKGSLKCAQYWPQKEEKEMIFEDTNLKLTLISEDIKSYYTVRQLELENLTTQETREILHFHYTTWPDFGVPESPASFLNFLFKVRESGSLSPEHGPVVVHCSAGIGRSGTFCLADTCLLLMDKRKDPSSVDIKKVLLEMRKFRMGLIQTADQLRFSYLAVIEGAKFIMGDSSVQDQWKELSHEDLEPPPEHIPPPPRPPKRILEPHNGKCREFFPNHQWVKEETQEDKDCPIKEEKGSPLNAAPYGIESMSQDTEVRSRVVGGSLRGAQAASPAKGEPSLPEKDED
Experimental: Kinetic analyses were performed at various substrate and inhibitor concentrations.
The negative control was prepared with the enzyme and substrate in the absence of the inhibitor. Experiments were conducted in triplicate.^[ [30] ^] […] The kinetic parameters of enzyme inhibition, K m and V max, were determined by fitting the data to the Michaelis‐Menten model, Equation (3) (OriginPro 2018 (64‐bit) SR1). (3) y=VmaxX/Km+X´ where V max: is the maximum velocity, X: is the inhibitor concentration, K m: Michaelis constant.
(4) y=Vmax(X)/(Km/1+I/Ki)+X where V max: maximum velocity, X: substrate concentration, I: inhibitor concentration, K m: Michaelis constant, K i : inhibition constant.

hPTP1B1–400 [2] = target: T1, hPTP1B1–400; test: PTP1B activity assay, long form hPTP1B1–400 (p‐NPP); type: biochemical; design: hPTP1B1–400 (the long form with an intrinsically disordered C‐terminal regulatory domain); conditions: ± S.D; p‐NPP substrate, 15 min at 37 °C, triplicate
Experimental: The inhibitory activity of PTP1B was assessed using two enzyme variants: hPTP1B1–285 (the short form with an N‐terminal catalytic domain) and hPTP1B1–400 (the long form with an intrinsically disordered C‐terminal regulatory domain). […] According to Coronel‐Tovar et al., the disordered region of the C‐terminal domain plays a crucial role in modulating PTP1B enzymatic activity.^[ [30] ^] […] Different concentrations of the compounds were evaluated to determine their IC50 values (Table 1 ).
Recombinant human protein tyrosine phosphatase 1B, consisting of 400 and 285 amino acid residues, was used.^[ [35] ^] […] Aliquots of 0–10 µL of the test compounds (triplicate) were taken and incubated for 15 min at 37 °C with 85 µL of Tris buffer solution (50 mM, pH 6.8) containing PTP1B enzyme and 5 µL of p‐nitrophenyl phosphate substrate (p‐NPP, 10 mM). Absorbance was then measured at a wavelength of 405 nm. The inhibitory activity was determined according to Equation (1). (1) % PTP1B=(A405b/A405c)×100 where % PTP1B: Is the percentage of inhibition. A 405c: Is the corrected absorbance of the blank (A 405initial–A 405final). A 405b: Is the corrected absorbance of the compounds (A 405control–A 405compound).

HepG2 cells = test: Cell viability with crystal violet; type: cell-based; conditions: 1 and 25 µM, 24 h
Experimental: (§1) Subsequently, we evaluated the same compounds in a HepG2 insulin‐resistant model.
A 96‐well plate was seeded with 3,000 cells per well and incubated for 24 h. Afterward, the cells were treated with test compounds at various concentrations for 24 h. After incubation, the media was removed, and 100 µL of 1% glutaraldehyde was added for 15 min. Afterward, the liquid was removed, and 50 µL of 0.5% crystal violet (dissolved in 25% methanol) was added for 30 min. The crystal violet staining solution was removed, and the plate was thoroughly washed with tap water. The precipitate was dissolved in a 10% acetic acid solution and mixed for 15 min. The absorbance was then measured at 590 nm using a plate reader (xMark Microplate Spectrophotometer—Bio‐Rad).
Figure S59. Cell viability assessment by crystal violet staining. HepG2 cell viability was evaluated
after treatment with the respective compounds at concentrations of 1 and 25 µM for 24 hours. Bar
graphs represent mean ± SEM.

[3] = system: insulin‐resistant HepG2 cells; test: Insulin‐resistant HepG2 model, western blotting of PTP1B and pAKT; type: cell-based; conditions: 24 h, western blot
Experimental: as §1
Bar graphs represent the mean ± SEM of normalized values. The control levels were set at 1. T‐test significance *p < 0.05, when compared with control (DMSO). Statistical analyses were carried out using GraphPad Prism 8.0.
For the resistant insulin model using HepG2 cells, the following reagents were acquired from Sigma–Aldrich (Toluca, MEX, Mexico, and St. Louis, MO, USA): Insulin (I2643), Dulbecco's modified eagle's medium (DMEM) low glucose media (D5523), Trypsin‐EDTA solution (T4174), antibiotic‐antimycotic solution(A5955), dimethyl sulfoxide (DMSO‐D8418), sodium deoxycholate (D6750), triethylammonium bicarbonate buffer 1 M (TEAB‐T7408), glutaraldehyde 25% (G6275), acetic acid (695092), and crystal violet (C0775). The bicinchoninic acid protein quantitation kit (23225) and the Halt Cocktail with protease and phosphatase inhibitors (1861281) were acquired from ThermoFisherScientific. Fetal bovine serum (26140–079) was from Gibco. The chemiluminescent solution (170–5061) was acquired from Biorad. Rabbit anti‐PTP1B (5311S) and mouse anti‐β actin (3700S) primary antibodies were obtained from Cell Signaling, and secondary antibodies coupled with horseradish peroxidase were from Jackson laboratories (rabbit‐111−035, mouse‐115–035).
Treated cells with compounds were washed twice with 1 mL of PBS, and protein was extracted using 500 µL of a buffer solution containing 10% sodium deoxycholate in 10% TEAB, supplemented with a protease and phosphatase inhibitor cocktail. The extracts were heated to 80 °C for 5 min and disaggregated through passages with an insulin syringe. The cell extracts were centrifuged at 15,000 rpm for 15 min at 4 °C, and the supernatant was collected. Protein quantification was performed using the bicinchoninic acid assay method, and aliquots were prepared for western blotting. SDS/PAGE was conducted, and proteins were transferred onto a nitrocellulose membrane. The membrane was then blocked with 10% skimmed milk in TBST for 1 h and incubated overnight with primary antibodies (1:400 dilution). Secondary antibodies coupled to horseradish peroxidase were diluted 1:2000, and membranes were incubated for 1 h. The blots were documented using the ChemiDoc MP (Bio‐Rad), and densitometric analysis was performed using ImageJ (U.S. National Institutes of Health). Statistical analyses were carried out using GraphPad Prism 8.0.

[4] = ± S.D, hPTP1B1–400 with inhibitor

SMILES: CC1(C(=O)O)CCC2(C)CCC3(C)C(=CC(=O)C4C5(C)Cc6c([nH]c7ccc(C(F)(F)F)cc67)C(C)(C)C5CCC43C)C2C1 (stereo not shown) [Compound 3c]
- Ki (hPTP1B1–400 [1]; K i, ± S.D, hPTP1B1–400, p‐NPP 0.1 to 0.5 mM): 71 ± 8 nM
- Inhibition type (hPTP1B1–400 [1]; hPTP1B1–400): uncompetitive inhibition
- K m (hPTP1B1–400 [1]; [4]): 0.52 ± 0.07 mM
- V max (hPTP1B1–400 [1]; [4]): 0.62 ± 0.05 mM/min
- IC50 (hPTP1B1–400 [2]): 2060 ± 80 nM
- HepG2 cell viability (HepG2 cells): No significant differences; also recorded: did not compromise HepG2 cell viability
- AKT phosphorylation (pAKT) levels [3]: slight increase; also recorded: slightly increased pAKT levels
